We go through one compound from patent US20070299139A1, “Lyophilisate Comprising N-Diaminomethylene-2-Methyl-4,5-Di(Methylsulfonyl)Benzamide” (priority 2004, published 2007).

This data set can be described thus: Stability of the active compound in aqueous solution. It is filed as physicochemical. As to conditions: hydrolyses. From the text:
The development of this active compound in intensive medicine requires that it is available in parenterally administrable form, best as aqueous solution.

For the compound `Cc1cc(S(C)(=O)=O)c(S(C)(=O)=O)cc1C(=O)NC(=N)N` [N-diaminomethylene-2-methyl-4,5-di(methylsulfonyl)benzamide], the “stability in aqueous solution” value is listed as “not stable in aqueous solution”.
